Laboratory results: paper PMC10991509, “A phase I study of ATR inhibitor gartisertib (M4344) as a single agent and in combination with carboplatin in patients with advanced solid tumours” (British Journal of Cancer, 2024)

Key:
[1] = target: T1, UGT1A1 (Rattus norvegicus, UniProt Q64550); experiment: UGT1A1 inhibition in rat liver microsomes; type: in vitro ADME; settings: value (standard error)
T1 construct: from tissue; host or cells: rat liver microsomes
T1 sequence (Q64550 30-535): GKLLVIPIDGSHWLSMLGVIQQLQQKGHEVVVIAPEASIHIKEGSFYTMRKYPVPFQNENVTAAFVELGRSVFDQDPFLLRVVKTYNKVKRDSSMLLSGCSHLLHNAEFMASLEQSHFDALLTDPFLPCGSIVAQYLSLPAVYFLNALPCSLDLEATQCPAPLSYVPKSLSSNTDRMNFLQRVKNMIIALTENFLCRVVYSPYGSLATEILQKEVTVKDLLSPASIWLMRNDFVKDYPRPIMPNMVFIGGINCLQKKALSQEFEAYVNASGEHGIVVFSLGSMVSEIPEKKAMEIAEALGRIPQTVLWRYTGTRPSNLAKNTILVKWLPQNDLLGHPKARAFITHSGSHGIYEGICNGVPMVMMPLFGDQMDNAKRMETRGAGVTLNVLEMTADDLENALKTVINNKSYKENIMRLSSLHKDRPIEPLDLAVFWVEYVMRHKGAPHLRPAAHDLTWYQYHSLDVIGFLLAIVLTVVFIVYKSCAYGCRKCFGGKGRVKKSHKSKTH

[2] = tested on: variant allele frequency of somatic alterations in ctDNA; experiment: Molecular response: variant allele frequency in ctDNA; type: in vivo, human; settings: for patients with reduced variant allele frequency of the selected biomarkers: cohort C, 250 mg QD
Excerpt: Exploratory objectives were to assess ATR inhibition and DNA damage by measuring phosphorylation of the Ser-139 residue of the histone variant H2AX (ɣ-H2AX) post-treatment in peripheral blood mononuclear cells (cohorts A2 and C), describe the mutational landscape and its relationship to BOR in patients with selected biomarkers (cohort C) and to determine changes in allele frequencies in mutations of interest and their association with clinical benefit (molecular response; cohorts A2 and C). Further details on the definitions of LOF mutations and methods of biomarker collection are described in the Supplementary Materials.
Use of ATRX/DAXX mutations as proxies for ALT-positive tumors enabled use of a single next-generation sequencing test for all biomarkers in this study. Loss of function mutations were defined as loss of the gene locus, a mutation defined as pathogenic in the ClinVar database or a mutation in one of the following categories: splice_acceptor_variant, splice_donor_variant, stop_gained, frameshift_variant, stop_lost or start_lost. Archival formalin-fixed paraffin-embedded tumor biopsies and serial blood samples collected in two 10 mL Streck tubes (Streck) were analyzed for the presence of genetic alterations in tumor DNA and circulating tumor DNA (ctDNA) with the FoundationOne® CDx NGS assay (Foundation Medicine, Cambridge, Massachusetts, US, FoundationOne®CDx Technical Information. https://www.accessdata.fda.gov/cdrh_docs/pdf17/P170019S006C.pdf) and Guardant Health OMNI assay (Guardant, Palo Alto, CA, US. Technical Information https://www.accessdata.fda.gov/cdrh_docs/pdf20/P200010C.pdf), respectively.
Molecular responses were measured in ctDNA as best-on-treatment change in variant allele frequency of somatic alterations with baseline value ≥0.3%.

[3] = target: UGT1A1 (Canis lupus familiaris, UniProt A0A8I3S535); experiment: UGT1A1 inhibition in dog liver microsomes
Sequence of UGT1A1 (Canis lupus familiaris, UniProt A0A8I3S535) (A0A8I3S535 entry or part of it): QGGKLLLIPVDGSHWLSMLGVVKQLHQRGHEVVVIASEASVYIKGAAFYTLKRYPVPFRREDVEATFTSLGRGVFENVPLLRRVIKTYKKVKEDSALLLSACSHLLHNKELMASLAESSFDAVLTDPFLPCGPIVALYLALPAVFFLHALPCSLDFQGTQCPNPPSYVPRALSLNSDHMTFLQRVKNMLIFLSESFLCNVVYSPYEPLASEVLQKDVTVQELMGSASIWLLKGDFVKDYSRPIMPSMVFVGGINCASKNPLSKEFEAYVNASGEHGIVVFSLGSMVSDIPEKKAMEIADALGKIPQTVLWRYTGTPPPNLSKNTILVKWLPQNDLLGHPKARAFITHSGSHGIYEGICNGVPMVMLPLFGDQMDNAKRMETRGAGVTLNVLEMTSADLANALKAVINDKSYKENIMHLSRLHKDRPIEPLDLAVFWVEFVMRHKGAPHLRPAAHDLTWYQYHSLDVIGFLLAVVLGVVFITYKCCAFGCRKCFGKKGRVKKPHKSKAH

## Nc1nn2cc(F)cnc2c1C(=O)Nc1cncc(F)c1N1CCC(C(=O)N2CCN(C3COC3)CC2)CC1 [gartisertib, Gartisertib]
[1]
  IC50: > 50 µM
[2]; cohort A2, 100 mg BID
  patients with TP53-reduced variant allele frequency: 0/2
[2]; cohort A2, 150 mg QD
  patients with TP53-reduced variant allele frequency: 1/2
[2]; cohort A2, 250 mg QD (RP2D)
  patients with TP53-reduced variant allele frequency: all six
[2]; cohort A2, 350 mg QD
  patients with TP53-reduced variant allele frequency: 0/4
[2]; cohort A2, patients achieving SD as best response
  patients with TP53-reduced variant allele frequency: 4/5
[2]; cohort A2, patients with PD
  patients with TP53-reduced variant allele frequency: 2/6
[2]; SD as best response
  patients with reduced variant allele frequency of the selected biomarkers: all four
[2]; patients with PD
  patients with reduced variant allele frequency of the selected biomarkers: 2/5
[3]
  IC50: > 50 µM
